{
  "source": "patent US4264600A",
  "about": "(priority 1979, dated 1981)",
  "key": {"[1]": {"system": "Maryland B influenza virus", "assay": "in vitro plaque inhibition, Maryland B influenza virus", "type": "cell-based", "details": "for IC50: unidentified influenza virus, in Chlorocebus sabaeus, 72 h, read-out: I50, amount of drug which inhibits 50% of the plaques"}, "[2]": {"system": "Ann Arbor influenza virus", "assay": "in vitro plaque inhibition, Ann Arbor influenza virus", "type": "cell-based", "details": "for IC50: unidentified influenza virus, in Chlorocebus sabaeus, 72 h, read-out: I50, amount of drug which inhibits 50% of the plaques"}, "[3]": {"system": "Ann Arbor or Maryland B strains of influenza virus", "assay": "in vivo survival of mice infected with influenza virus", "set-up": "species or system White Swiss female mice, McAllister strain", "details": "for minimal effective dose: read-out: in vivo dose at which there was a statistically significant increase in survival", "description": "In vivo activity was determined as follows: White Swiss female mice (11-13 g.) McAllister strain were infected with aqueous dilutions of Ann Arbor or Maryland B strains of influenza virus in an air borne injection apparatus. Graded dose levels of the drug were injected intraperitoneally (IP) or administered orally by gavage 24 and 4 hours preinfection and 24 and 48 hours postinfection. Date of death was determined. The drug was administered in water containing 2% of a surfactant. In Table 1, column 7, a dosage level for each drug is given at which there was a statistically significant increase in survival and column 6 gives the route of administration."}, "[4]": {"details": "rats, 100 mg/kg"}, "[5]": {"details": "dogs, 30-60 mg/kg"}, "[6]": {"system": "Polio III", "type": "cell-based, Polio III virus", "details": "in vitro"}, "[7]": {"system": "Vaccinia", "type": "cell-based, Vaccinia virus", "details": "in vitro"}, "[8]": {"details": "compared with 6,7-dichloro congener"}, "[9]": {"system": "Herpes simplex", "assay": "in vitro plaque suppression test, Herpes simplex", "type": "cell-based, Herpes simplex virus"}, "[10]": {"system": "Echo 10", "assay": "in vitro plaque suppression test, Echo 10", "type": "cell-based, Echo 10 virus", "details": "Echo 10, in vitro"}, "[11]": {"details": "route IP, OR, 24 and 4 hours preinfection and 24 and 48 hours postinfection"}, "[12]": {"details": "increased to 60 mg/day for 7 days"}, "[13]": {"details": "nasogastric gavage, 30 mg/day for 14 days"}, "[14]": {"details": "route IP, 24 and 4 hours preinfection and 24 and 48 hours postinfection"}},
  "note": "Where two headings read alike, the source gives them in different places.",
  "data": [
    {"compound": "O=C(OCC1CCC1)c1nc2cc(Cl)c(Cl)cc2[nH]c1=O", "note": "[L, Cyclobutylmethyl 6,7-Dichloro-3,4-dichloro-3-oxo-2-quinoxaline Carboxylate]", "values": [
      {"measurement": "IC50", "setting": "[1]", "value": 15, "unit": "µg/mL"},
      {"measurement": "IC50", "setting": "[2]", "value": 20, "unit": "µg/mL"}
    ]},
    {"compound": "CCOC(=O)c1nc2cc(Cl)c(Cl)cc2[nH]c1=O", "note": "[D]", "values": [
      {"measurement": "IC50", "setting": "[1]", "value": 38, "unit": "µg/mL"},
      {"measurement": "minimal effective dose", "setting": "[3]; [11]", "value": 40, "unit": "mg/kg"},
      {"measurement": "degree of hepatotoxicity (both drugs)", "setting": "[4]", "value": "equal, though minor"},
      {"measurement": "degree of nephrotoxicity (both drugs)", "setting": "[4]", "value": "equal, though minor"},
      {"measurement": "blood urea nitrogen", "setting": "30 then 60 mg/day", "value": "elevated"},
      {"measurement": "creatinine levels", "setting": "30 then 60 mg/day", "value": "elevated"},
      {"measurement": "kidney damage", "setting": "30 then 60 mg/day", "value": "evidence of kidney damage"},
      {"measurement": "AP", "setting": "[12]", "value": "remain elevated"},
      {"measurement": "SGPT", "setting": "[12]", "value": "returned to normal"},
      {"measurement": "AP", "setting": "[13]", "value": "moderate increases"},
      {"measurement": "SGPT", "setting": "[13]", "value": "moderate increases"},
      {"measurement": "liver damage (from AP and SGPT)", "setting": "[13]", "value": "suggestive of liver damage"},
      {"measurement": "degree of hepatotoxicity (both drugs)", "setting": "[5]", "value": "equal, though minor"},
      {"measurement": "degree of nephrotoxicity (both drugs)", "setting": "[5]", "value": "equal, though minor"}
    ]},
    {"compound": "Ethyl 6(7)-Chloro-7(6)-bromo-3,4-dihydro-3-oxo-2-quinoxalineCarboxylate", "values": [
      {"measurement": "in vivo dose at which there was a statistically significant increase in survival", "setting": "[3]; [14]", "value": 80, "unit": "mg/kg"},
      {"measurement": "Activity level (dose level at which activity was found)", "setting": "[6]", "value": 2000, "unit": "µg/mg"},
      {"measurement": "Activity level (dose level at which activity was found)", "setting": "[7]", "value": 2000, "unit": "µg/mg"}
    ]},
    {"compound": "CCCCOC(=O)c1nc2cc(Cl)c(Cl)cc2[nH]c1=O", "note": "[G]", "values": [
      {"measurement": "IC50", "setting": "[1]", "value": 38, "unit": "µg/mL"}
    ]},
    {"compound": "O=C(O)CCc1nc2cc(Cl)c(Cl)cc2[nH]c1=O", "note": "[B]", "values": [
      {"measurement": "minimal effective dose", "setting": "[3]; ip", "value": 50, "unit": "mg/kg"}
    ]},
    {"compound": "CCOC(=O)c1nc2cc(Br)c(Br)cc2[nH]c1=O", "note": "[M]", "values": [
      {"measurement": "minimal effective dose", "setting": "[3]; [11]", "value": "40 to 80", "unit": "mg/kg"},
      {"measurement": "degree of hepatotoxicity (both drugs)", "setting": "[4]", "value": "equal, though minor"},
      {"measurement": "degree of nephrotoxicity (both drugs)", "setting": "[4]", "value": "equal, though minor"},
      {"measurement": "toxicity in monkeys relative to its 6,7-dichloro congener", "setting": "[8]", "value": "much less toxic"},
      {"measurement": "degree of hepatotoxicity (both drugs)", "setting": "[5]", "value": "equal, though minor"},
      {"measurement": "degree of nephrotoxicity (both drugs)", "setting": "[5]", "value": "equal, though minor"}
    ]},
    {"compound": "COC(=O)c1nc2cc(Cl)c(Cl)cc2[nH]c1=O", "note": "[C]", "values": [
      {"measurement": "IC50", "setting": "[1]", "value": "< 10", "unit": "µg/mL"},
      {"measurement": "minimal effective dose", "setting": "[3]; ip", "value": 60, "unit": "mg/kg"}
    ]},
    {"compound": "O=C(OCCCl)c1nc2cc(Cl)c(Cl)cc2[nH]c1=O", "note": "[J]", "values": [
      {"measurement": "IC50", "setting": "[1]", "value": 58, "unit": "µg/mL"},
      {"measurement": "IC50", "setting": "[2]", "value": 76, "unit": "µg/mL"}
    ]},
    {"compound": "Ethyl 6-methoxy-5-nitro-3,4-dihydro-3-oxo-2-quinoxaline Carboxylate and Ethyl 7-Methoxy-8-nitro-3,4-dihydro-3-oxo-2-quinoxaline Carboxylate", "values": [
      {"measurement": "in vivo dose at which there was a statistically significant increase in survival", "setting": "[3]; [14]", "value": 80, "unit": "mg/kg"},
      {"measurement": "Activity level (dose level at which activity was found)", "setting": "[9]", "value": 2000, "unit": "µg/mg"},
      {"measurement": "Activity level (dose level at which activity was found)", "setting": "[10]", "value": 2000, "unit": "µg/mg"}
    ]},
    {"compound": "ethyl 6(7)-nitro-3,4-dihydro-3-oxo-2-quinoxaline carboxylate", "values": [
      {"measurement": "I50, amount of drug which inhibits 50% of the plaques", "setting": "[1]; Maryland B influenza virus, in vitro, 72 hours at 37° C.", "value": 40, "unit": "µg/mL"},
      {"measurement": "in vivo dose at which there was a statistically significant increase in survival", "setting": "[3]; [14]", "value": 80, "unit": "mg/kg"},
      {"measurement": "Activity level (dose level at which activity was found)", "setting": "[7]", "value": 2000, "unit": "µg/mg"}
    ]},
    {"compound": "CCOC(=O)c1nc2cc(I)c(I)cc2[nH]c1=O", "note": "[F, Ethyl 6,7-Diiodo-3,4-dihydro-3-oxo-2-quinoxaline Carboxylate]", "values": [
      {"measurement": "minimal effective dose", "setting": "[3]", "value": 80, "unit": "mg/kg"},
      {"measurement": "Ann Arbor influenza virus in vitro activity (in words)", "setting": "[2]; Ann Arbor influenza virus, in vitro", "value": "Active"}
    ]},
    {"compound": "O=C(O)c1nc2cc(Cl)c(Cl)cc2[nH]c1=O", "note": "[E]", "values": [
      {"measurement": "IC50", "setting": "[1]", "value": "< 71", "unit": "µg/mL"},
      {"measurement": "minimal effective dose", "setting": "[3]; ip", "value": 50, "unit": "mg/kg"},
      {"measurement": "IC50", "setting": "[2]", "value": "< 100", "unit": "µg/mL"}
    ]},
    {"compound": "Ethyl 6-Nitro-8-chloro-3,4-dihydro-3-oxo-2-quinoxaline carboxylate and Ethyl 7-Nitro-5-chloro-3,4-dihydro-3-oxo-2-quinoxaline Carboxylate [S]", "values": [
      {"measurement": "in vivo dose at which there was a statistically significant increase in survival", "setting": "[3]; [14]", "value": 80, "unit": "mg/kg"},
      {"measurement": "Activity level (dose level at which activity was found)", "setting": "[7]", "value": 2000, "unit": "µg/mg"},
      {"measurement": "Activity level (dose level at which activity was found)", "setting": "[9]", "value": 2000, "unit": "µg/mg"},
      {"measurement": "Activity level (dose level at which activity was found)", "setting": "[10]", "value": 2000, "unit": "µg/mg"}
    ]},
    {"compound": "C=CCOC(=O)c1nc2cc(Cl)c(Cl)cc2[nH]c1=O", "note": "[K]", "values": [
      {"measurement": "IC50", "setting": "[1]", "value": 33, "unit": "µg/mL"},
      {"measurement": "IC50", "setting": "[2]", "value": 75, "unit": "µg/mL"}
    ]}
  ]
}
